Measured values taken from patent US6090605A, “Purified porcine kidney L-fucose kinase” (The Board of Trustees of the University of Arkansas, priority 1998, dated 2000).
Entries after “also recorded” stand apart in the source; their conditions may differ. Blank lines part the entries; values can stand above or below the molecule they belong to.

Tests used:
pig kidney fucokinase [1] = biological target: T1, pig kidney fucokinase (Sus scrofa, UniProt I3LTC2); assay: Effect of metal ions on fucokinase activity; type: biochemical
T1 construct: L-Fucokinase was purified to apparent homogeneity from the cytosolic fraction of pig kidney; from tissue; host or cells: pig kidney, cytosolic fraction
T1 sequence (I3LTC2 1-1083): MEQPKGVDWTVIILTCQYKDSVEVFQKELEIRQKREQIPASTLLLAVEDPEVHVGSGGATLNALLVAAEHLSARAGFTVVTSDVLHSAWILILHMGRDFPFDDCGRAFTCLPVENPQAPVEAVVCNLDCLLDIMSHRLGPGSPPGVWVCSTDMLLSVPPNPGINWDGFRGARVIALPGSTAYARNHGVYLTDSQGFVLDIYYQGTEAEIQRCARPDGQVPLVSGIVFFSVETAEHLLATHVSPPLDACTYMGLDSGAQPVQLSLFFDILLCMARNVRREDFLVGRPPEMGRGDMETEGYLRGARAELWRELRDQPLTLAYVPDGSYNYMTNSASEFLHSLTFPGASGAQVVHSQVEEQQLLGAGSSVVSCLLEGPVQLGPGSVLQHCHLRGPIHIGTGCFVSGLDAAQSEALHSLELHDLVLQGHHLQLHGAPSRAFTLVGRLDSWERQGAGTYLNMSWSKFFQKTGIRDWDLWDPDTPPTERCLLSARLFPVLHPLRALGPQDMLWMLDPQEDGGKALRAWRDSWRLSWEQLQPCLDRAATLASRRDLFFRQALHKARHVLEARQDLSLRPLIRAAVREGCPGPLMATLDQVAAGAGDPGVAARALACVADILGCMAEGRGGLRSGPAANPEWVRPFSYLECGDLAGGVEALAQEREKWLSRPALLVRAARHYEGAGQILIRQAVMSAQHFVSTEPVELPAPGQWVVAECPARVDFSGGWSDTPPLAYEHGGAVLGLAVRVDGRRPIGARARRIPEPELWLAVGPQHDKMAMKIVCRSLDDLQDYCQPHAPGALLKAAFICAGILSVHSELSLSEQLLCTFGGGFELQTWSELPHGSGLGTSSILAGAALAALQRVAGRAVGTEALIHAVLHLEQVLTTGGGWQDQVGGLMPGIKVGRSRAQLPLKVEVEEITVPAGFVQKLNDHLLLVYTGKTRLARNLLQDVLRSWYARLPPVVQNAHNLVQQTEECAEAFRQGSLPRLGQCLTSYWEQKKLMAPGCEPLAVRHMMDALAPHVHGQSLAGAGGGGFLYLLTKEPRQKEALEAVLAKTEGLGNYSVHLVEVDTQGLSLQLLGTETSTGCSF
Protocol: Increasing concentrations of the metal ions shown were added to incubations of the purified enzyme with ^3 H-fucose and ATP, and the formation of fucose-1-P was measured as described below. Metal ions tested were as follows: Mg^++, filled circles; Fe^++, filled diamonds; Co^++, filled triangles; Mn^++, filled squares.
(§1) Fucokinase activity was assayed by measuring the production of L-fucose-1-Pfrom [^3 H]L-fucose and ATP. The incubation mixtures contained the following components (final concentrations) in a total volume of 150 μl: L-fucose, 0.1 mM; ATP, 5 mM; MgSO4, 5 mM; Tris-HCl buffer, pH 8.0, 65 mM; and various amounts of enzyme at the different stages of purification. Incubations were at 37° C. for 10 minutes, and reactions were terminated by heating the reaction mixtures in a boiling water bath for 1 minute. The incubation mixtures were then applied to a column of DE-52 contained in a Pasteur pipette, and the column was washed with at least 5 column volumes of 10 mM (NH4)HCO3 to remove the unbound material. The [^3 H]fucose-1-P was then eluted with 500 mM (NH4)HCO3. Aliquots of the eluates were assayed for their radioactive content by subjecting a portion to scintillation counting.
Co^++ and Mn^++ were also stimulatory with maximum activity occurring at about 3 to 5 mM, but the maximum activity was only about 25% to 33% of that observed with Mg^++.

pig kidney fucokinase [2] = biological target: T1, pig kidney fucokinase; assay: Specificity of fucokinase for phosphate donor (nucleotides); type: biochemical; settings: for Specific Activity: nucleotide added at 1 mM as phosphate donor; for activity as phosphate donor (in words): nucleotide added at 1 mM
Protocol: as §1
The specificity of the nucleoside triphosphate was also examined by testing the ability of a variety of nucleotides to serve as phosphate donors in the phosphorylation of [^3 H]L-fucose. […] In addition, no activity is observed with any nucleoside diphosphates or monophosphates.

[3] = system: pig liver L-fucokinase preparation; settings: cited from earlier work
[4] = biological target: T2, pig kidney fucokinase (110 kDa band) (Sus scrofa, UniProt I3LTC2); assay: Photoaffinity labeling of the fucokinase with 8-azido-ATP[32P]; type: binding
T2 construct: L-Fucokinase was purified to apparent homogeneity from the cytosolic fraction of pig kidney; from tissue; host or cells: pig kidney, cytosolic fraction
T2 sequence (I3LTC2 1-1083): T1 sequence (I3LTC2 1-1083)
Protocol: The purified enzyme was incubated for 20 seconds with azido-ATP[^32 P], and the mixture was exposed to UV for 90 seconds. The reaction was stopped by adding loading buffer and the mixture subjected to SDS-PAGE. Radioactive bands were detected by exposure to film. Lanes are as follows: Lane 1, Probe+enzyme, but no UV; Lane 2, Probe+enzyme+UV; Lanes 3 through 6. Probe+enzyme+0.3, 0.6, 0.9, and 1.2 mM ATP+exposure to UV light; lanes 7 and 8, 0.6 and 1.2 mM GTP+probe+exposure to UV light: lanes 9 and 10, 0.6 and 1.2 mM ITP+probe+exposure to UV light. In lanes 11 and 12, the enzyme was incubated with N3 -GTP[^32 P ] and then exposed to UV light (lane 12) or not exposed to UV light (lane 11). Lane 13 is a control of enzyme+N3 -ATP[^32 P]+exposure to UV light.
Enzyme, at various stages of purity, was mixed with 8-azido-ATP[^32 P] in buffer, and allowed to incubate for 20 sec. in an ice bath. 8-Azido-ATP[^32 P] was prepared as previously described (16). After incubation, the reaction mixture was exposed to short wave UV light for about 90 sec. to activate the azido group, and the protein was subjected to SDS gel electrophoresis to separate the proteins. The gels were dried and exposed to film to locate the radioactive bands and were also stained with Coomassie blue to locate the various proteins. The specificity of the labeling was determined by examining the effect of various concentrations of unlabeled ATP or other nucleotides on the labeling of the protein by N3 -ATP[^32 P]. Various controls were also run, such as one in which exposure to UV was omitted.
Lanes 11-13 of FIG. 3 show the results of another experiment designed to determine whether 8-N3 -GTP[^32 P] could label the fucokinase. […] These experiments indicate that the fucokinase is quite specific for ATP.

pig kidney fucokinase [5] = biological target: T1, pig kidney fucokinase; assay: Sugar specificity of purified fucokinase (radiolabeled sugars as phosphate acceptors); type: biochemical
Protocol: as §1
The specificity of the kinase for various sugar substrates was examined in two different ways. In the first set of experiments, various radiolabeled sugars were tested as phosphate acceptors for the purified enzyme using the ion-exchange chromatography method for assay of activity. […] D-Arabinose, which has the same configuration at carbons 1 through 4 as L-fucose, was also a reasonable substrate for phosphorylation, and was about 10% as effective as L-fucose. On the other hand, all of the other sugars were ineffective as phosphate acceptors.

pig kidney fucokinase [6] = biological target: T1, pig kidney fucokinase; assay: Inhibition of [3H]L-fucose phosphorylation by unlabeled monosaccharides; type: biochemical; settings: for Relative Activity (%): unlabeled monosaccharide 500 μM, radiolabeled L-fucose substrate 100 μM; for inhibition of phosphorylation of [3H]L-fucose (in words): unlabeled sugar 500 μM
Protocol: as §1
Although it was possible to get a reasonable assessment of the sugar specificity of the kinase from the above experiment, it was not possible to test sugars such as D-fucose, since these sugars are not available in radioactive form. Thus, these unlabeled sugars were tested for their ability to inhibit the phosphorylation of [^3 H]L-fucose. The rationale for this experiment is that a sugar that inhibits the phosphorylation of L-fucose would probably compete with L-fucose for the phosphorylation (i.e., active) site.

Compound: [Fe+2] [Fe^++]
metal ion concentration at optimum (maximum) activity (pig kidney fucokinase [1]): about 10 mM
stimulation of enzyme activity by metal ion (in words) (pig kidney fucokinase [1]): nearly the same degree as Mg^++

Compound: [Ca+2] [Ca^++]
stimulation of enzyme activity by metal ion (in words) (pig kidney fucokinase [1]): inactive

Compound: C[C@H](O)[C@@H](O)[C@@H](O)[C@H](O)C=O [L-fucose]
activity as phosphate acceptor (in words) (pig kidney fucokinase [5]; purified enzyme): by far the best substrate; also recorded: active as phosphate acceptors
Specific Activity (pig kidney fucokinase [5]; radiolabeled sugar 100 μM as phosphate acceptor): 11.8 nmole/mg protein
Relative Activity (%) (pig kidney fucokinase [6]): 23%
inhibition of phosphorylation of [3H]L-fucose (in words) (pig kidney fucokinase [6]): reasonable inhibitor

Compound: [Ni+2] [Ni^++]
stimulation of enzyme activity by metal ion (in words) (pig kidney fucokinase [1]): inactive

Compound: [N-]=[N+]=Nc1nc2c(N)ncnc2n1[C@@H]1O[C@H](COP(=O)(O)OP(=O)(O)OP(=O)(O)O)[C@@H](O)[C@H]1O [N3 -ATP[^32 P], 8-azido-ATP[^32 P]]
labeling of the 110 kDa protein by photoprobe (in words) ([4]; incubation with probe, exposure to UV light): did result in labeling of the 110 kDa protein

Compound: O=CC[C@@H](O)[C@H](O)[C@H](O)CO [2-deoxy-D-glucose]
Relative Activity (%) (pig kidney fucokinase [6]): 92%
inhibition of phosphorylation of [3H]L-fucose (in words) (pig kidney fucokinase [6]): ineffective as inhibitors

Compound: C[C@H](O)[C@H](O)[C@@H](O)[C@@H](O)C=O [L-rhamnose]
inhibition of phosphorylation of [3H]L-fucose (in words) (pig kidney fucokinase [6]): ineffective as inhibitors
phosphorylation of sugar by the about 70-fold purified preparation (in words) [3]: considerable activity for phosphorylating

Compound: [Mo+2] [Mo^++]
stimulation of enzyme activity by metal ion (in words) (pig kidney fucokinase [1]): inactive

Compound: [Fe+3] [Fe^+++]
stimulation of enzyme activity by metal ion (in words) (pig kidney fucokinase [1]): inactive

Compound: Nc1ccn([C@@H]2O[C@H](COP(=O)(O)O)[C@@H](O)[C@H]2O)c(=O)n1 [CMP]
activity as phosphate donor (in words) (pig kidney fucokinase [2]): Inactive

Now from value to molecule, other results behind:

Specific Activity (pig kidney fucokinase [2]): 0.04 nmoles/mg protein/10 min
Compound: O=c1ccn([C@@H]2O[C@H](COP(=O)(O)OP(=O)(O)OP(=O)(O)O)[C@@H](O)[C@H]2O)c(=O)[nH]1 [UTP]
use as phosphate donor (in words) [3]: could also use

Specific Activity (pig kidney fucokinase [2]): 0.10 nmoles/mg protein/10 min
Compound: O=c1[nH]cnc2c1ncn2[C@@H]1O[C@H](COP(=O)(O)OP(=O)(O)OP(=O)(O)O)[C@@H](O)[C@H]1O [ITP]
inhibition of labeling of the 110 kDa band by N3-ATP[32P] (in words) ([4]; unlabeled ATP 0.3-1.2 mM, GTP, ITP 0.6 and 1.2 mM): considerably less effective in inhibiting

activity as phosphate donor (in words) (pig kidney fucokinase [2]): Inactive
Compound: O=c1ccn([C@@H]2O[C@H](COP(=O)(O)OP(=O)(O)O)[C@@H](O)[C@H]2O)c(=O)[nH]1 [UDP]

Specific Activity (pig kidney fucokinase [2]): 0.05 nmoles/mg protein/10 min
Compound: Nc1ccn([C@@H]2O[C@H](COP(=O)(O)OP(=O)(O)OP(=O)(O)O)[C@@H](O)[C@H]2O)c(=O)n1 [CTP]
use as phosphate donor (in words) [3]: could also use

activity as phosphate donor (in words) (pig kidney fucokinase [2]): Inactive
Compound: Nc1nc2c(ncn2[C@@H]2O[C@H](COP(=O)(O)OP(=O)(O)O)[C@@H](O)[C@H]2O)c(=O)[nH]1 [GDP]
